# Values quoted from earlier work as cited in patent US20260374745A1, “METHODS FOR PRODUCING AROMATIC THIAZINES OR SELENAZINES” (Universität Heidelberg, priority 2023, published 2026).
# What was measured:
# [1] = tested on: HIV; conditions: Mizuhara et al., Org. Biomol. Chem. 2012, 10, 6792-6802
# [2] = tested on: 3-deoxy-d-manno-octulosonic acid 8-phosphate (KDO 8-P) synthase; conditions: role: inhibitor; Birck et al., J. Am. Chem. Soc. 2000, 122, 9334-9335
structure (smiles),measurement,setting,value
N=C1Sc2ccccc2C2=NCCCN12 [PD 404182],anti-HIV activities,[1],potent
same,3-deoxy-d-manno-octulosonic acid 8-phosphate (KDO 8-P) synthase inhibitor,[2],inhibitor
